One test has as its system Nr4a3-FT CD4+ T cells. The test can be described thus: Force induced TCR downregulation (TCRlo) by flow cytometry. The format is cell-based, mouse. The note with it: Latrunculin A 0.25 and 1 μM; cells with 250 nm particles and force. As to the method: (§1) Splenic tissue was sourced from Nr4a3—fluorescent timer (Nr4a3-FT) reporter mice or from Tg4 transgenic mice, kindly provided by the laboratories of Dr David Bending (University of Birmingham) or Professor David Wraith (University of Birmingham) respectively. CD4+ T cells were purified by negative selection as per the manufacturer's instructions (Invitrogen, magnisort mouse CD4+ enrichment kit, 8804-6821-74) and CD4+ T cell purity was ≥95% in all experiments. Isolated CD4+ T cells were treated with functionalized MNPs for 30 minutes on ice, to final concentrations of 5×10^5 cells and 50 μg/ml MNPs respectively. Cells were then washed three times in PBS by 5 minutes of centrifugation at 300 g, before resuspension at 1×10^6/ml and use in force application experiments.
(§2) Cells treated with MNPs were subjected to external magnetic force through use of the Magnetic Ion Channel Activation (MICA) platform for force application as previously described (Henstock et al., 2018; Hughes et al., 2008). […] In all experiments shown, oscillations were set at 1 Hz and the plate was positioned 3 mm away from the particles in the on position. Force was applied for time frames shown, before assessment of biological T cell activity as described herein.
Where indicated, cells were treated with Latrunculin A (Tocris, C973) to final concentrations of 0.25 and 1 μM. […]

Test [1] has as its system CD4+ T cells from the Nr4a3-FT mouse. The test can be described thus: Flow cytometry analysis of T cell activation markers after magnetic force application to MNP-bound cells. It is filed as cell-based. The note with it: blockade of actin cytoskeletal dynamics. How it is done: as §1, §2
Following force application for time frames indicated, cells were maintained in a 37° C. […]
A general note: Flow cytometry measures light scatter and fluorescence of single cells or particles in a stream.

For the compound `C/C1=C/C(=O)O[C@@H]2C[C@@H](CC[C@H](C)/C=C\C=C\CC1)O[C@@](O)([C@@H]1CSC(=O)N1)C2` [Latrunculin A], in the test with Nr4a3-FT CD4+ T cells, the “effect on force induced TCR downregulation” value is “prevents force induced TCR downregulation”; the “effect on population of cells that are TCRlo and Nr4a3 positive” value is “prevents the establishment of a population of cells that are TCRlo and Nr4a3 positive”. Also, the “effect on force induced T cell activation” value in test [1] is “prevents TCR downregulation and T cell activation”.

(Values after patent US20240165264A1, “T CELL ACTIVATION” (The University of Birmingham, priority 2022, published 2024).)
